Data: patent US9315859B2, “DDAO compounds as fluorescent reference standards” (LIFE TECHNOLOGIES CORPORATION, priority 2010, dated 2016)

Tests used:
Assay type in all cases: physicochemical
[1] = Resilience to harsh oxidation: free dye with benzoyl peroxide, fluorescence decay; conditions: about 1 μM free dye in Tris-EDTA buffer/MeOH, 5 μl 0.5M benzoyl peroxide in acetonitrile per 1 ml, read at 5 minute intervals, compared with ROX
Method: Regarding chemical stability, DDAO congeners appear to have resilience under various conditions, such as oxidation, photo-degradation, and the like. For example, regarding resilience to harsh oxidation, DDAO, Sulfo-DDAO, and ROX were each suspended as free dyes in a solution of 1.4 of Tris-EDTA buffer (1× stock concentration) in MeOH at a concentration of approximately 1 μM. Five μl of 0.5M benzoyl peroxide in acetonitrile was added to 1 ml of the dye composition in a fluorimeter cuvette. Fluorescence emission intensity was measured at each dye's emission maximum immediately, and then at 5 minute intervals. A first-order exponential curve was fit to the data to calculate the decay rate for each dye. FIG. 7 is a graph showing the results of that experiment. […] As such, the reference dyes of formula (I) can be used in assays in which the assay components might come in contact with oxidants.

[2] = Stability of reference dye incubated in TaqMan Universal PCR Master Mix, judged by Ct values; conditions: room temperature in TaqMan Universal PCR Master Mix, 1 day to 4 weeks; consistent Ct values
Method: FIG. 11 depicts the stability of Sulfo-DDAO in a master mix, and incubated with various additional additives. Sulfo-DDAO was incubated in TaqMan® Universal PCR Master Mix at room temperature for 1 day, 1 week, 2 weeks, or 4 weeks. At each designated time point, fixed quantities of various, different target polynucleotides and various dye-labeled TaqMan® probes, were added. The target/probe mixtures were PCR amplified in a 96 well plate and the signals recorded after each amplification cycle to generate an amplification count from which a Ct value was determined for each target/probe mixture, using Sulfo-DDAO as a reference dye. FIG. 11 is a graph showing the results of that experiment, with the Ct values plotted for each time point. The Sulfo-DDAO signal was stable at room temperature in TaqMan® Universal PCR Master Mix for up to 4 weeks, as evidenced by the consistent Ct values obtained at different incubation times for the different target/probe mixtures, using Sulfa-DDAO as a reference dye.

[3] = Normalized fluorescent emission as a function of temperature; conditions: signals normalized to the 94° C. data point; compared with 6-FAM and ROX
Method: FIG. 6 depicts a graph of normalized fluorescent emission as a traction of temperature for Sulfo-DDAO in comparison to a reporter dye, 6-FAM, as well as a reference dye, ROX. Given the difference in brightness of the dyes shown, each data point for each curve was adjusted using an internal reference point taken from the 94° C. data point for that data set. In that regard, the fluorescence signals are normalized to give equal intensities at 94 C so that their relative changes with temperature can be easily compared. […] This attribute may be useful when, for example, dye calibration they be one at a different temperature from a run temperature, or could be useful for normalizing experimental variations as previously discussed.

resilience to oxidation (fluorescence emission decay) [1]	stability of reference dye signal in master mix [2]	stability of fluorescence emission across temperature [3]	Structure (SMILES)
show resilience to oxidation	–	–	CC1(C)C2=C(Cl)C(=O)C(Cl)=CC2=Nc2ccc(O)cc21 [DDAO, 1,3-dichloro-7-hydroxy-9,9-dimethylacridin-2(9H)-one]
show resilience to oxidation	stable	fairly stable	CC1(C)C2=C(Cl)C(=O)C(Cl)=CC2=Nc2cc(S(=O)(=O)O)c(O)cc21 [Sulfo-DDAO, 6,8-dichloro-2-hydroxy-9,9-dimethyl-7-oxo-7,9-dihydroacridine-3-sulfonic acid]
